Data from PubChem BioAssay (NCI).
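Protocol summary: plate cells (96-well), add compound at 5 concentrations, incubate 48 h, interpolate endpoints linearly. At the TGI there is no net growth.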

Assays:
Test in all cases: NCI anticancer screen, dose series, 48 h
UACC-62 melanoma = system: UACC-62 melanoma
T-47D breast = system: T-47D breast
OVCAR-8 ovarian = system: OVCAR-8 ovarian
HOP-62 NSCLC = system: HOP-62 NSCLC
MDA-MB-435 = system: MDA-MB-435
BT-549 breast = system: BT-549 breast
UACC-257 melanoma = system: UACC-257 melanoma
EKVX NSCLC = system: EKVX NSCLC
A549 NSCLC = system: A549 NSCLC
HL-60(TB) leukemia = system: HL-60(TB) leukemia
HT29 colon = system: HT29 colon
CCRF-CEM leukemia = system: CCRF-CEM leukemia
786-0 renal = system: 786-0 renal
CAKI-1 renal = system: CAKI-1 renal
TK-10 renal = system: TK-10 renal
SF-539 CNS = system: SF-539 CNS
SW-620 colon = system: SW-620 colon
HCT-116 colon = system: HCT-116 colon
SF-268 CNS = system: SF-268 CNS
NCI-H226 lung = system: NCI-H226 lung
SK-MEL-2 melanoma = system: SK-MEL-2 melanoma
COLO 205 colon = system: COLO 205 colon
SK-MEL-5 melanoma = system: SK-MEL-5 melanoma
KM12 colon = system: KM12 colon
U251 CNS = system: U251 CNS
SN12C renal = system: SN12C renal
SK-OV-3 ovarian = system: SK-OV-3 ovarian
NCI-H522 lung = system: NCI-H522 lung
MALME-3M melanoma = system: MALME-3M melanoma
NCI-H23 lung = system: NCI-H23 lung
UO-31 renal = system: UO-31 renal
NCI/ADR-RES ovarian = system: NCI/ADR-RES ovarian
LOX IMVI melanoma = system: LOX IMVI melanoma
RPMI-8226 leukemia = system: RPMI-8226 leukemia
SK-MEL-28 melanoma = system: SK-MEL-28 melanoma
SNB-75 CNS = system: SNB-75 CNS
ACHN renal = system: ACHN renal
SF-295 CNS = system: SF-295 CNS
MCF7 breast = system: MCF7 breast
PC-3 prostate = system: PC-3 prostate
MDA-N = system: MDA-N
OVCAR-5 ovarian = system: OVCAR-5 ovarian
SR leukemia = system: SR leukemia
OVCAR-3 ovarian = system: OVCAR-3 ovarian
HCC-2998 colon = system: HCC-2998 colon
MOLT-4 leukemia = system: MOLT-4 leukemia
K-562 leukemia = system: K-562 leukemia
M14 melanoma = system: M14 melanoma
HCT-15 colon = system: HCT-15 colon
DU-145 prostate = system: DU-145 prostate
RXF 393 renal = system: RXF 393 renal
OVCAR-4 ovarian = system: OVCAR-4 ovarian
SNB-19 CNS = system: SNB-19 CNS

Measured: TGI

CCOC(=O)CN1C(=O)C(=O)N(c2ccc(OC)c3ccccc23)C1=O
> 100 µM: all assays above
